Key:
[1] = test system: 22Rv1 (human prostate cancer); assay: Crystal Violet (CVE) viability assay, 22Rv1; format: cell-based; settings: for Average absorbance, CVE 24 h / Average absorbance, CVE 48 h / Average absorbance, CVE 72 h: 22Rv1 Run 3
From the text: (§1) The Sulforhodamine B and Crystal Violet assays provide information about protein and were used to complement the Methyl-Tetrazolium dye assay. […] It is used for the quantification of cellular proteins of cultured cells. The assay using Crystal Violet, a dye that binds electrostatically to proteins and stains DNA, provides a reliable, simple assay for measuring viability of cells.
(§2) The Methyl Tetrazolium, Sulforhodamine B, and Crystal Violet assays were used to assess cell viabilities. The incubation times were 24 hours, 48 hours, and 72 hours. The Nerium oleander extract Anvirzel™ (a hot water extract of oleander obtained from Salud Integral, Honduras) was tested in concentrations ranging from 0.01 ng/mL to 10 ng/mL.
(§3) Cells were detached by trypsinization (Trypsin-0.25% EDTA, Invitrogen, 25200-072) during the logarithmic phase of culture growth and plated in 96-well plates (18.000 cells/well) (Corning, Costar 359) in a final volume of 200 μl of medium per well. […] The absorbance was measured after 24 hours, 48 hours, and 72 hours of incubation.
(§4) For the Crystal Violet assay, the medium was removed from the 96-well plates, the plates rinsed with PBS (Sigma, P3813) and then the cells were […] by the addition of 10% formalin (MERCK, 1.04003.2500) for 20 minutes at RT. Formalin was removed and 0.25% aqueous crystal violet (Sigma, HT901), dissolved in water, was added for 10 minutes at RT. Unbound Crystal Violet was rinsed by washing with water and finally 33% acetic acid was added to dissolve the dye.
(§5) The optical density of each plate was measured on a μQuant spectrophotometer and the data were analyzed with Gen5 software (μQuant Biomolecular Spectrophotometer MQX200 and Gen5™ Microplate Data Collection & Analysis software, BioTek® Instruments. Inc, April 2008). Absorbance was measured at 570 nm for all assays and a second wavelength was measured in order to subtract noise. For the Methyl-Tetrazolium assay this second wavelength was 630 nm and for the Sulforhodamine B and Crystal Violet assays it was 690 nm.

[2] = test system: T47D (human breast cancer); assay: Sulforhodamine B viability assay, T47D; format: cell-based; design: key: absorbance (optical density) at 570 nm, second wavelength subtracted
From the text: Three different viability assays were chosen to complement each other and yielded results dependent on concentration and cell line: the Methyl Tetrazolium dye assay, the Sulforhodamine B fluorescent dye assay, and the Crystal Violet dye assay.
as §1, §2, §3
For the Sulforhodamine B assay, 96-well plates were fixed by 10% trichloroacetic acid (Fluka, 91228) and were incubated at 4° C. for 1 hour. Afterwards, plates were rinsed with water and cells were stained with 0.4% Sulforhodamine B (Sigma, 341738), dissolved in 1% acetic acid (Carlo Ebra, 401422) for 15 minutes at room temperature (RT). The unbound stain was washed twice with 1% acetic acid. Finally, 10 mM Tris Buffer pH 10.5 (Sigma, T6791) was added to dissolve the dye.
as §5

[3] = test system: HCT-15 (colorectal cancer); assay: Crystal Violet viability assay, HCT-15; format: cell-based, human; design: key to CVE Average: absorbance at 570 nm (second wavelength subtracted); settings: for CVE Average 24 h / CVE Average 48 h / CVE Average 72 h: HCT-15, Run 1
From the text: as §1, §2, §3, §4, §5

N.N.[Cl][Pt][Cl] [cisplatin]
CVE 24 h Average ([1]; 22Rv1 Run 1, 0.1 μg/ml CDDP): 0.27
CVE 48 h Average ([1]; 22Rv1 Run 1, 0.1 μg/ml CDDP): 0.501
CVE 72 h Average ([1]; 22Rv1 Run 1, 0.1 μg/ml CDDP): 0.803
CVE 24 h Average ([1]; 22Rv1 Run 1, 1 μg/ml CDDP): 0.152
CVE 48 h Average ([1]; 22Rv1 Run 1, 1 μg/ml CDDP): 0.437
CVE 72 h Average ([1]; 22Rv1 Run 1, 1 μg/ml CDDP): 0.606
CVE 48 h Average ([1]; 22Rv1 Run 1, 10 μg/ml CDDP): 0.351
CVE 72 h Average ([1]; 22Rv1 Run 1, 10 μg/ml CDDP): 0.439
CVE 24 h Average ([1]; 22Rv1 Run 1, 100 μg/ml CDDP): 0.124
CVE 48 h Average ([1]; 22Rv1 Run 1, 100 μg/ml CDDP): 0.273
CVE 72 h Average ([1]; 22Rv1 Run 1, 100 μg/ml CDDP): 0.233
CVE 24 h Average ([1]; 22Rv1 Run 2, 0.1 μg/ml CDDP): 0.541
CVE 48 h Average ([1]; 22Rv1 Run 2, 0.1 μg/ml CDDP): 0.776
CVE 72 h Average ([1]; 22Rv1 Run 2, 0.1 μg/ml CDDP): 0.784
CVE 24 h Average ([1]; 22Rv1 Run 2, 1 μg/ml CDDP): 0.305
CVE 48 h Average ([1]; 22Rv1 Run 2, 1 μg/ml CDDP): 0.517
CVE 72 h Average ([1]; 22Rv1 Run 2, 1 μg/ml CDDP): 0.286
CVE 24 h Average ([1]; 22Rv1 Run 2, 10 μg/ml CDDP): 0.376
CVE 48 h Average ([1]; 22Rv1 Run 2, 10 μg/ml CDDP): 0.434
CVE 72 h Average ([1]; 22Rv1 Run 2, 10 μg/ml CDDP): 0.206
CVE 24 h Average ([1]; 22Rv1 Run 2, 100 μg/ml CDDP): 0.228
CVE 48 h Average ([1]; 22Rv1 Run 2, 100 μg/ml CDDP): 0.228
CVE 72 h Average ([1]; 22Rv1 Run 2, 100 μg/ml CDDP): 0.256
Average absorbance, CVE 24 h ([1]; 0.1 μg/ml CDDP): 0.85
Average absorbance, CVE 48 h ([1]; 0.1 μg/ml CDDP): 0.644
Average absorbance, CVE 72 h ([1]; 0.1 μg/ml CDDP): 0.45
Average absorbance, CVE 24 h ([1]; 1 μg/ml CDDP): 0.434
Average absorbance, CVE 48 h ([1]; 1 μg/ml CDDP): 0.404
Average absorbance, CVE 72 h ([1]; 1 μg/ml CDDP): 0.284
Average absorbance, CVE 24 h ([1]; 10 μg/ml CDDP): 0.295
Average absorbance, CVE 48 h ([1]; 10 μg/ml CDDP): 0.289
Average absorbance, CVE 72 h ([1]; 10 μg/ml CDDP): 0.283
Average absorbance, CVE 24 h ([1]; 100 μg/ml CDDP): 0.215
Average absorbance, CVE 48 h ([1]; 100 μg/ml CDDP): 0.212
Average absorbance, CVE 72 h ([1]; 100 μg/ml CDDP): 0.234
SRB Average ([2]; T47D Run 1, 24 h, 1 μg/ml CDDP): 1.786
SRB Average ([2]; T47D Run 1, 24 h, 10 μg/ml CDDP): 1.586
SRB Average ([2]; T47D Run 1, 24 h, 100 μg/ml CDDP): 1.494
SRB Average ([2]; T47D Run 1, 48 h, 0.1 μg/ml CDDP): 2.029
SRB Average ([2]; T47D Run 1, 48 h, 1 μg/ml CDDP): 1.913
SRB Average ([2]; T47D Run 1, 48 h, 10 μg/ml CDDP): 1.768
SRB Average ([2]; T47D Run 1, 72 h, 0.1 μg/ml CDDP): 2.34
SRB Average ([2]; T47D Run 1, 72 h, 1 μg/ml CDDP): 1.863
SRB Average ([2]; T47D Run 1, 72 h, 10 μg/ml CDDP): 1.428
SRB Average ([2]; T47D Run 2, 24 h, 0.1 μg/ml CDDP): 2.474
SRB Average ([2]; T47D Run 2, 24 h, 1 μg/ml CDDP): 1.601
SRB Average ([2]; T47D Run 2, 24 h, 10 μg/ml CDDP): 1.417
SRB Average ([2]; T47D Run 2, 24 h, 100 μg/ml CDDP): 1.102
SRB Average ([2]; T47D Run 2, 48 h, 0.1 μg/ml CDDP): 2.112
SRB Average ([2]; T47D Run 2, 48 h, 1 μg/ml CDDP): 1.969
SRB Average ([2]; T47D Run 2, 48 h, 10 μg/ml CDDP): 1.988
SRB Average ([2]; T47D Run 2, 48 h, 100 μg/ml CDDP): 1.708
SRB Average ([2]; T47D Run 2, 72 h, 0.1 μg/ml CDDP): 1.969
SRB Average ([2]; T47D Run 2, 72 h, 1 μg/ml CDDP): 1.201
SRB Average ([2]; T47D Run 2, 72 h, 10 μg/ml CDDP): 1.567
SRB Average ([2]; T47D Run 2, 72 h, 100 μg/ml CDDP): 1.513
SRB Average ([2]; T47D Run 3, 24 h, 0.1 μg/ml CDDP): 1.615
SRB Average ([2]; T47D Run 3, 24 h, 1 μg/ml CDDP): 1.846
SRB Average ([2]; T47D Run 3, 24 h, 10 μg/ml CDDP): 1.368
SRB Average ([2]; T47D Run 3, 24 h, 100 μg/ml CDDP): 1.34
SRB Average ([2]; T47D Run 3, 48 h, 0.1 μg/ml CDDP): 2.223
SRB Average ([2]; T47D Run 3, 48 h, 1 μg/ml CDDP): 2.03
SRB Average ([2]; T47D Run 3, 48 h, 10 μg/ml CDDP): 1.974
SRB Average ([2]; T47D Run 3, 48 h, 100 μg/ml CDDP): 1.758
SRB Average ([2]; T47D Run 3, 72 h, 0.1 μg/ml CDDP): 2.044
SRB Average ([2]; T47D Run 3, 72 h, 1 μg/ml CDDP): 1.344
SRB Average ([2]; T47D Run 3, 72 h, 10 μg/ml CDDP): 1.461
CVE Average 24 h ([3]; 0.1 μg/ml CDDP): 0.787
CVE Average 48 h ([3]; 0.1 μg/ml CDDP): 0.99
CVE Average 72 h ([3]; 0.1 μg/ml CDDP): 2.312
CVE Average 24 h ([3]; 1 μg/ml CDDP): 0.451
CVE Average 48 h ([3]; 1 μg/ml CDDP): 0.187
CVE Average 72 h ([3]; 1 μg/ml CDDP): 0.425
CVE Average 24 h ([3]; 10 μg/ml CDDP): 0.59
CVE Average 48 h ([3]; 10 μg/ml CDDP): 0.277
CVE Average 72 h ([3]; 10 μg/ml CDDP): 0.282
CVE Average 24 h ([3]; 100 μg/ml CDDP): 0.456
CVE Average 48 h ([3]; 100 μg/ml CDDP): 0.214
CVE Average 72 h ([3]; 100 μg/ml CDDP): 0.231
CVE Average ([3]; Run 2, 24 h, 0.1 μg/ml CDDP): 0.766
CVE Average ([3]; Run 2, 24 h, 1 μg/ml CDDP): 0.387
CVE Average ([3]; Run 2, 24 h, 10 μg/ml CDDP): 0.824
CVE Average ([3]; Run 2, 24 h, 100 μg/ml CDDP): 0.41
CVE Average ([3]; Run 2, 48 h, 0.1 μg/ml CDDP): 1.542
CVE Average ([3]; Run 2, 48 h, 1 μg/ml CDDP): 0.533
CVE Average ([3]; Run 2, 48 h, 10 μg/ml CDDP): 0.742
CVE Average ([3]; Run 2, 48 h, 100 μg/ml CDDP): 0.378
CVE Average ([3]; Run 2, 72 h, 0.1 μg/ml CDDP): 2.449
CVE Average ([3]; Run 2, 72 h, 1 μg/ml CDDP): 0.533
CVE Average ([3]; Run 2, 72 h, 10 μg/ml CDDP): 0.46
CVE Average ([3]; Run 2, 72 h, 100 μg/ml CDDP): 0.327
CVE Average ([3]; Run 3, 24 h, 0.1 μg/ml CDDP): 2.043
CVE Average ([3]; Run 3, 24 h, 1 μg/ml CDDP): 0.459
CVE Average ([3]; Run 3, 24 h, 10 μg/ml CDDP): 1.477
CVE Average ([3]; Run 3, 24 h, 100 μg/ml CDDP): 0.473
CVE Average ([3]; Run 3, 48 h, 0.1 μg/ml CDDP): 1.335
CVE Average ([3]; Run 3, 48 h, 10 μg/ml CDDP): 0.363
CVE Average ([3]; Run 3, 48 h, 100 μg/ml CDDP): 0.114
CVE Average ([3]; Run 3, 72 h, 0.1 μg/ml CDDP): 2.814
CVE Average ([3]; Run 3, 72 h, 1 μg/ml CDDP): 0.623
CVE Average ([3]; Run 3, 72 h, 10 μg/ml CDDP): 0.669
CVE Average ([3]; Run 3, 72 h, 100 μg/ml CDDP): 0.499

From US20190343908A1, “Therapeutic Combination for the Treatment of Cancer” (Nerium Biotechnology Inc., priority 2011, published 2019)
